Laboratory results taken from article PMC4859512, “Polyamino-Isoprenic Derivatives Block Intrinsic Resistance of P. aeruginosa to Doxycycline and Chloramphenicol In Vitro” (PLoS ONE, 2016).
Values joined by “and” are separate entries in the source; they are usually repeats but may differ in a detail not shown here. Identical values can stand only once.

What was measured:
P. aeruginosa PA01 (wt) = assay: Antibiotic susceptibility testing (broth micro-dilution MIC), strain PA01; type: cell-based, Pseudomonas aeruginosa; conditions: Pseudomonas aeruginosa, read-out: Minimal Inhibitory Concentration
Method: (§1) Experiments were performed on the BAC-SCREEN platform of the UMR-MD1, with a Freedom EVO 150 liquid handling system (Tecan, Lyon, France).
(§2) The same experiment was performed using chloramphenicol (4 mg/L) in combination with 3 (10 μM final concentration). […] These experiments were performed to study the effect of our compounds on the natural resistance of P. aeruginosa. […] Experiments were performed with the ß-lactams ceftazidime and ticarcillin and ciprofloxacin and amikacin.

[1] = test system: P. aeruginosa PT629 (Mex AB overproducer); assay: Antibiotic susceptibility testing (broth micro-dilution MIC), strain PT629; type: cell-based, Pseudomonas aeruginosa; conditions: Pseudomonas aeruginosa, read-out: Minimal Inhibitory Concentration
Method: as §1
(§3) We concluded that compound 3 was the best compound and suitable for a more detailed study. The same experiment was performed using chloramphenicol (4 mg/L) in combination with 3 (10 μM final concentration). Amongst the 20 clinical isolates, the growth of 15 (75%) was impaired, while 5 (25%) were resistant (data not shown). These experiments were performed to study the effect of our compounds on the natural resistance of P. aeruginosa. In addition, we were wondering if compound 3 could also increase susceptibility to other antibiotic families including ß-Lactams, fluoroquinolones and aminoglycosides, that are representative of the main classes of anti-pseudomonal agents. Experiments were performed with the ß-lactams ceftazidime and ticarcillin and ciprofloxacin and amikacin. […] . […] To better characterize compound 3, we first searched for the minimum concentration of compound that allowed killing of bacteria by doxycycline, and PAßN was used as the reference molecule.

[2] = test system: P. aeruginosa PA01 ERY^R (Mex CD overproducer); assay: microbe, parasite or virus in culture; type: cell-based, Pseudomonas aeruginosa; conditions: Pseudomonas aeruginosa, read-out: Minimal Inhibitory Concentration
Method: as §1, §2

[3] = test system: P. aeruginosa PA0-7H (Mex EF overproducer); assay: Antibiotic susceptibility testing (broth micro-dilution MIC), strain PA0-7H; type: cell-based, Pseudomonas aeruginosa; conditions: Pseudomonas aeruginosa, read-out: Minimal Inhibitory Concentration
Method: as §1, §3

[4] = test system: P. aeruginosa CMZ091 (Mex XY overproducer); assay: Antibiotic susceptibility testing (broth micro-dilution MIC), strain CMZ091; type: cell-based, Pseudomonas aeruginosa; conditions: Pseudomonas aeruginosa, read-out: Minimal Inhibitory Concentration
Method: as §1, §3

[5] = test system: P. aeruginosa FB1 (Mex B deleted); assay: Antibiotic susceptibility testing (broth micro-dilution MIC), strain FB1; type: cell-based; conditions: Pseudomonas aeruginosa, read-out: Minimal Inhibitory Concentration
Method: as §1

[6] = test system: twenty clinical isolates of P. aeruginosa; assay: Combined antibiotic / polyamino-isoprenic derivative on MH agar plates, clinical isolates; type: cell-based, Pseudomonas aeruginosa; conditions: doxycycline 2 mg/L + compound 10 μM; 20 clinical isolates
Method: MH agar plates were prepared, containing 2 mg/L doxycycline and 2 mg/L doxycycline in combination with compounds at a concentration of 10 μM. Bacteria, 5 μL of a suspension of each clinical isolate adjusted to 5 x 10^5 colony-forming units per ml were spotted on each plate and growth was monitored after a 18 h period of incubation at 37°C.
PA01 is a well-studied reference strain of P. aeruginosa, however to extend our study we considered strains recently isolated from hospitalized patients. Thus, we decided to test this combination of doxycycline (2mg/L) with polyamino-isoprenic compounds (10 μM) on twenty clinical isolates recently isolated from the HIA-Laveran (see M&M section and S1 Table).

CHO-K1 cells = assay: cells; type: cell-based, Chinese Hamster; conditions: for IC50: Cricetulus griseus, CHO-K1, WST1, 24 h, mean +/- SD, 2 independent experiments
Method: (§4) CHO-K1 cells (ATCC-LGC Standards Sarl (Molsheim, France) and human fibroblasts (Clinisciences, Paris, France) were maintained in McCoy’s 5A and DMEM media, respectively, supplemented with 10% bovine calf serum, 2 mM glutamine, and 100 U/mL/10 μg/mL penicillin/streptomycin. They were incubated at 37°C in a humidified atmosphere containing 5% CO2. The cell lines were seeded in 96-well plates and incubated overnight. The cytotoxic effects of compounds were assessed by the colorimetric WST-1 cell proliferation assay as previously described. Briefly, a range of compound concentrations from 30 μM to 1200 μM was added to triplicate cultures, and cells were incubated at 37°C for 24 h. At the end of the incubation period, cultures were washed three times with phosphate buffer saline (PBS) and incubated in fresh culture medium containing 10% WST-1 for an additional 30 min. Cell viability was evaluated by measuring the WST-1 absorbance at 450 nm in a microplate spectrophotometer MRX1 II (Dynex technologies, Chantilly, VA, USA). The Inhibitory Concentration 50% (IC50) was chosen to evaluate the cytotoxicity of compounds. IC50 was defined as the concentration of a compound that induced a 50% decrease in viable cells. Doxorubicin was used as a positive control.

human fibroblasts = assay: WST-1 cytotoxicity test, fibroblasts; type: cell-based
Method: as §4

[7] = test system: P. aeruginosa PA01 reference strain; assay: High-content screening in the presence of doxycycline; conditions: compound 10 μM, sub-inhibitory doxycycline
Method: The screening was carried out in 96-well microtiter plates using MHBII, in a final volume of 200 μL. […] The bacterial inoculum of 5×10^5 CFU/mL was prepared from an overnight culture. In addition to the polyamino-isoprenic compounds, each plate contained PAßN, CCCP, CTAB, polymyxin-B and benzalkonium chloride as control molecules. Plates were incubated at 37°C under aerobic conditions for 18 hours. Plates were read at 600 nm on an Infinite M200 Pro plate reader (Tecan).
A series of 60 compounds, which were described [18], were tested at a concentration of 10 μM in combination with a sub-inhibitory concentration of doxycycline against the reference strain of P. aeruginosa PA01. In parallel, we evaluated the intrinsic antimicrobial activity of these compounds alone to allow the selection of only doxycycline adjuvants.

Enterobacteriaceae = assay: Same type of combination assay against Enterobacteriaceae (data not shown); type: cell-based
[8] = test system: efflux of 1,2'-dinaphthylamine in strain PA01; assay: Real-time efflux assay (1,2'-dinaphthylamine, glucose-triggered); type: cell-based, Pseudomonas aeruginosa
Method: The experiments were performed as previously described with slight modifications. For each strain, 20 mL of MHII was inoculated with a single colony from a fresh plate and grown at 37°C to the stationary phase. […] They were then loaded over night with the dye 1,2’-dinaphthylamine (TCI-Europe SA, Zwijndrecht, Belgium) at a final concentration of 32 μM, in the presence of 5 μM CCCP. […] In a 96-well Greiner black microplate (Greiner, Courtaboeuf, France), a gradient of inhibitor (when used) was prepared in PPB, and bacteria were added (100 μL per well). The fluorescence of the cell suspension, was monitored each 22 sec during 1200 sec on an Infinite M200 microplate reader (Tecan; excitation wavelength 370 nm and emission wavelength 420 nm). In order to trigger the transport, glucose (50 mM final concentration) is added at 200 sec. The maximum efficacy of the efflux is the difference between the value obtained without and with glucose addition after 1200 sec. For each compound, the efficiency of efflux inhibition is calculated as the difference between the maximum efficacy of transport and the residual transport obtained at various concentrations of the compound.

[9] = test system: outer membrane of P. aeruginosa PA01; assay: Outer membrane permeation assay (nitrocefin hydrolysis); conditions: compound at 125μM, relative to 250 μM polymyxin-B
Method: An overnight culture of PA01 was diluted 100-fold into 10 ml MHII broth containing 0.01 μg/ml of imipenem to induce a higher level of β-lactamases. […] Absorbance at 490 nm was monitored by spectrophotometry using an Infinite M200 microplate reader (Tecan) over 60 min. Experiments were performed in triplicate.

Row | Compound | MIC (P. aeruginosa PA01 (wt)) | MIC [1] | MIC [2] | MIC [3] | MIC [4] | MIC [5] | isolates with doxycycline susceptibility restored [6] | cytotoxicity value compared with the positive control doxorubicin (CHO-K1 cells; Chinese hamster, 24 h) | IC50 (CHO-K1 cells) | IC50 (human fibroblasts; Homo sapiens, Fibroblast, WST1, 24 h, mean +/- SD, 2 independent experiments) | cytotoxicity value compared with the positive control doxorubicin (human fibroblasts; human fibroblasts) | synergy with doxycycline in screening [7] | rank of potency against Enterobacteriaceae (Enterobacteriaceae) | efflux inhibition ([8]; compound at 31.25μM) | efflux inhibition ([8]; compound at 125μM) | outer membrane permeation activity [9]
1 | CC(C)=CCCC(C)=CCNCCCNCCCCNCCCN [Compound 1] | > 85 µg/mL and > 250 µM | > 85 µg/mL and > 250 µM | > 85 µg/mL and > 250 µM | 85 µg/mL and 250 µM | 85 µg/mL and 250 µM | 85 µg/mL and 250 µM | 27% | 20 times | 808 ± 68.1 µM | 138 ± 18.6 µM | 10 times | did not show any significant synergy | – | – | – | –
2 | CC(C)=CCCC(C)=CCNCCCN(CCCN)CCCN [Compound 2] | > 81 µg/mL and > 250 µM | > 81 µg/mL and > 250 µM | > 81 µg/mL and > 250 µM | > 81 µg/mL and > 250 µM | > 81 µg/mL and > 250 µM | > 81 µg/mL and > 250 µM | 6% | – | 236 ± 28.9 µM | – | – | – | the most potent | – | – | –
3 | polymyxin-B nonapeptide [PMBN, reference compound] | – | – | – | – | – | – | – | – | – | – | – | – | – | quite inefficient | 30% | 10%
